Assay results published in patent US10800789B2, “Antiviral compounds” (Gilead Pharmasset LLC, priority 2012, dated 2020).
Where two headings read alike, the source gives them in different places.

Columns and labels:
[1] = system: stable HCV 1b RLuc replicon cells (dicistronic genotype 1b Con1 replicon); experiment: Renilla luciferase HCV replicon reporter assay, genotype 1b; type: cell-based; conditions: Hepatitis C virus, 72 h, stable 1b Con1 RLuc replicon cells, 72 hours; read-out: 1b
How it was run: (§1)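 Cells carrying the stable or transiently transfected (Huh-Lunet) dicistronic RLuc replicons received 3-fold serial compound dilutions from 10 mM DMSO stocks. After 72 h, cells were lysed and Renilla luciferase read. DMSO served as the no-inhibition control and ITMN-191 above 100×EC50 as the positive control; EC50 by non-linear regression.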

[2] = system: stable HCV 1a RLuc replicon cells (dicistronic genotype 1a H77 replicon); experiment: Renilla luciferase HCV replicon reporter assay, genotype 1a; type: cell-based; conditions: Hepatitis C virus, 72 h, stable 1a H77 RLuc replicon cells
How it was run: as §1

[3] = system: Q30R in genotype 1a NS5A (1a Pi-Rluc replicon, Huh-7-derived cured-51 cells); experiment: Replicon assay against resistance mutant 1a Q30R; type: cell-based, HCV; conditions: Hepatitis C virus
How it was run: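 Q30R introduced by site-directed mutagenesis into the 1a Pi-RLuc replicon; replicon RNA transiently transfected into cured-51 cells. Cells treated with 3-fold serially diluted compound for 72 h, then lysed and Renilla luciferase measured; EC50 by non-linear regression.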

[4] = system: stable HCV 2a JFH-1 Rluc replicon cells (L31 present in NS5A); experiment: Renilla luciferase HCV replicon reporter assay, genotype 2a JFH-1; type: cell-based
How it was run: as §1

[5] = system: NS5A chimeric genotype 2a JFH-1 replicon with genotype 2a J6 strain NS5A gene (M31 present); experiment: Replicon assay, genotype 2a J6 NS5A chimera; type: cell-based, HCV
How it was run: as §1

[6] = system: NS5A chimeric genotype 2a JFH-1 replicon with genotype 2b MD2b-1 strain NS5A gene (M31 present); experiment: Replicon assay, genotype 2b NS5A chimera; type: cell-based, HCV
How it was run: as §1

[7] = system: NS5A chimeric genotype 1b Con1 replicon with genotype 3a S52 strain NS5A gene; experiment: Replicon assay, genotype 3a NS5A chimera; type: cell-based, HCV
[8] = system: NS5A chimeric genotype 1b Con1 replicon with genotype 4a ED43 strain NS5A gene; experiment: Replicon assay, genotype 4a NS5A chimera; type: cell-based, HCV; conditions: Hepatitis C virus
[9] = IV and PO single dose pharmacokinetic studies in SD rats; type: in vivo, male Sprague-Dawley (SD) rats; conditions: Sprague-Dawley, rat, plasma, male SD rats, PO 2 mg/kg vs IV infusion 1 mg/kg, read-out: Rat % F
How it was run: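 Fasted male Sprague-Dawley rats (250-300g, n=3/group) were given 1 mg/kg IV as a 30-min jugular infusion (5% ethanol/35% PEG 400/water pH 2.0) or 2 mg/kg by oral gavage (5% ethanol/55% PEG 400/citrate pH 2.2). Plasma was sampled to 24 h and analysed by LC/MS/MS. Non-compartmental parameters were derived, and %F was calculated from the oral/IV AUC ratio.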

[10] = Hepatitis C virus, read-out: 2a JFH (nM), genotype 2a JFH-1 replicon (L31 in NS5A), stable cells
[11] = Hepatitis C virus, read-out: 2a JFH, stable 2a JFH-1 Rluc replicon cells, L31 in NS5A, activity range
[12] = Hepatitis C virus, read-out: 2a J6 (t) (nM), genotype 2a J6 NS5A chimeric replicon (M31), transiently transfected (t) into Huh-Lunet cells
[13] = Hepatitis C virus, read-out: 2a J6 (t), transiently transfected (t) into Huh-Lunet cells, activity range
[14] = Hepatitis C virus, 2BS, read-out: 2b (s), stably replicating replicon cells (s), activity range
[15] = Hepatitis C virus, read-out: 2b (s) (nM), genotype 2b MD2b-1 NS5A chimeric replicon (M31), stably replicating replicon cells (s)
[16] = Hepatitis C virus, read-out: 3a (s) (nM), genotype 3a NS5A chimeric replicon, stable replicon cells (s)
[17] = Hepatitis C virus, read-out: 3a (s), (s), activity range
[18] = Hepatitis C virus, read-out: 3a (t) (nM), genotype 3a NS5A chimeric replicon, transiently transfected (t)
[19] = Hepatitis C virus, read-out: 3a (t), transiently transfected (t) into Huh-Lunet cells, activity range
[20] = read-out: 4a (s) (nM), genotype 4a NS5A chimeric replicon, stable replicon cells (s)
[21] = read-out: 4a (s), (s), activity range

| Compound | EC50 [1] [nM] | EC50 [2] [nM] | EC50 ([2]; activity range) [nM] | EC50 ([3]; read-out: 1a Q30R) [nM] | EC50 ([3]; read-out: 1a Q30R (nM)) [nM] | EC50 [4, 10] [nM] | EC50 [4, 11] [nM] | EC50 [5, 12] [nM] | EC50 [5, 13] [nM] | EC50 [6, 14] [nM] | EC50 [6, 15] [nM] | EC50 [7, 16] [nM] | EC50 [7, 17] [nM] | EC50 [7, 18] [nM] | EC50 [7, 19] [nM] | EC50 [8, 20] [nM] | EC50 [8, 21] [nM] | bioavailability [9] [%] | other results |
| --- | --- | --- | --- | --- | --- | --- | --- | --- | --- | --- | --- | --- | --- | --- | --- | --- | --- | --- | --- |
| CC[C@H](C)C(NC(=O)OC)C(=O)N1[C@@H](C)CC[C@H]1c1nc2ccc3cc4c(cc3c2[nH]1)OCc1cc(-c2cnc([C@@H]3CC[C@H](C)N3C(=O)[C@@H](NC(=O)OC)[C@@H](C)OC)[nH]2)ccc1-4 (stereo partly drawn) [EH, methyl{(3S)-1-[(2S,5S)-2-(9-{2-[(2S,5S)-1-{(2S,3R)-3-methoxy-2-[(methoxycarbonyl)amino]butanoyl}-5-methylpyrrolidin-2-yl]-1H-imidazol-5-yl}-1,11-dihydroisochromeno[4′,3′:6,7]naphtho[1,2-d]imidazol-2-yl)-5-methylpyrrolidin-1-yl]-3-methyl-1-oxopentan-2-yl}carbamate] | 0.015 | 0.011 | < 0.1 | < 0.1 | 0.082 | 0.013 | < 0.1 | 0.086 | < 0.1 | 0.1 to 0.999 | 0.153 | 0.022 | < 0.1 | 0.024 | < 0.1 | 0.006 | < 0.1 | 15.8 |  |
| COC[C@H]1C[C@@H](c2nc(C3CC3)c(-c3ccc4c(c3)COc3cc5c(ccc6nc([C@@H]7CC[C@H](C)N7C(=O)[C@@H](NC(=O)OC)C(C)C)[nH]c65)cc3-4)[nH]2)N(C(=O)[C@H](NC(=O)OC)c2ccccc2)C1 [FZ, Methyl {(1R)-2-[(2S,4S)-2-(4-cyclopropyl-5-{2-[(2S,5S)-1-{(2S)-2-[(methoxycarbonyl)amino]-3-methylbutanoyl}-5-methylpyrrolidin-2-yl]-1,11-dihydroisochromeno[4′,3′:6,7]naphtho[1,2-d]imidazol-9-yl}-1H-imidazol-2-yl)-4-(methoxymethyl)pyrrolidin-1-yl]-2-oxo-1-phenylethyl}carbamate] | 0.031 | 0.019 | < 0.1 | < 0.1 | 0.048 |  | < 0.1 |  |  |  |  |  |  |  |  | 0.025 | < 0.1 | 18.5 | EC50 ([4]; read-out: 2a JFH, genotype 2a JFH-1 replicon (L31 in NS5A), stable cells): 0.025 nM; EC50 ([5]; read-out: 2a J6 (t), genotype 2a J6 NS5A chimeric replicon (M31), transiently transfected (t) into Huh-Lunet cells): 0.041 nM; EC50 ([5]; read-out: 2a J6 (t), transiently transfected (t) into Huh-Lunet cells, activity range): < 0.1 nM; EC50 ([6]; read-out: 2b (s), genotype 2b MD2b-1 NS5A chimeric replicon (M31), stably replicating replicon cells (s)): 0.101 nM; EC50 ([6]; read-out: 2b (s), stably replicating replicon cells (s), activity range): 0.1 to 0.999 nM; EC50 ([7]; read-out: 3a (s), (s), activity range): < 0.1 nM; EC50 ([7]; read-out: 3a (s), genotype 3a NS5A chimeric replicon, stable replicon cells (s)): 0.098 nM |
| CC[C@H]1CC[C@@H](c2ncc(-c3ccc4c(c3)COc3cc5c(ccc6nc([C@@H]7CC[C@H](C)N7C(=O)[C@@H](NC(=O)OC)C(C)C)[nH]c65)cc3-4)[nH]2)N1C(=O)[C@@H](NC(=O)OC)C1CCOCC1 [HQ] | 0.027 | 0.022 | < 0.1 | < 0.1 | 0.031 | 0.024 | < 0.1 | 0.088 | < 0.1 | 0.1 to 0.999 | 0.233 | 0.076 | < 0.1 | 0.049 | < 0.1 | 0.02 | < 0.1 | 34.3 | EC50 ([6]; Hepatitis C virus, read-out: 2b (t) (nM), genotype 2b MD2b-1 NS5A chimeric replicon (M31), transiently transfected (t)): 0.079 nM; EC50 ([6]; Hepatitis C virus, read-out: 2b (t), transiently transfected (t) into Huh-Lunet cells, activity range): < 0.1 nM |
